# What was measured:
# Assay type in all cases: functional
# Candida albicans [1] = assay: Antifungal activity against fluconazole-resistant Candida albicans clinical isolate 100 assessed as inhibition of fungal growth by CLSI M27-A3 guidelines based method
# Candida tropicalis = assay: Antifungal activity against Candida tropicalis GIM 2.183 assessed as inhibition of fungal growth by CLSI M27-A3 guidelines based method
# Candida albicans [2] = assay: Antifungal activity against Candida albicans GIM 2.194 assessed as inhibition of fungal growth by CLSI M27-A3 guidelines based method
# Candida albicans [3] = assay: Antifungal activity against fluconazole-resistant Candida albicans CaR assessed as inhibition of fungal growth by CLSI M27-A3 guidelines based method
# Candida parapsilosis = assay: Antifungal activity against Candida parapsilosis GIM 2.190 assessed as inhibition of fungal growth by CLSI M27-A3 guidelines based method; settings: Lodderomyces parapsilosis
# Pichia kudriavzevii = assay: Antifungal activity against Candida krusei GIM 2.1 assessed as inhibition of fungal growth by CLSI M27-A3 guidelines based method
# Candida albicans [4] = assay: Antifungal activity against fluconazole and iodiconazole resistant Candida albicans clinical isolate 17# assessed as inhibition of fungal growth by CLSI M27-A3 guidelines based method
# Candida albicans [5] = assay: Antifungal activity against fluconazole-resistant Candida albicans clinical isolate 901 assessed as inhibition of fungal growth by CLSI M27-A3 guidelines based method
# Aspergillus fumigatus = assay: Antifungal activity against Aspergillus fumigatus cgmcc 3.7795 assessed as inhibition of fungal growth by CLSI M27-A3 guidelines based method
# Candida albicans [6] = assay: Antifungal activity against Candida albicans SC5314 assessed as inhibition of fungal growth by CLSI M27-A3 guidelines based method
# Candida albicans [7] = assay: Antifungal activity against fluconazole-resistant Candida albicans clinical isolate 632 assessed as inhibition of fungal growth by CLSI M27-A3 guidelines based method
# Candida albicans [8] = assay: Antifungal activity against fluconazole-resistant Candida albicans clinical isolate 904 assessed as inhibition of fungal growth by CLSI M27-A3 guidelines based method
# Nakaseomyces glabratus = assay: Antifungal activity against Candida glabrata assessed as inhibition of fungal growth by CLSI M27-A3 guidelines based method
# Candida albicans [9] = assay: Antifungal activity against fluconazole-resistant Candida albicans clinical isolate 103 assessed as inhibition of fungal growth by CLSI M27-A3 guidelines based method
# Candida albicans [10] = assay: Antifungal activity against fluconazole-resistant Candida albicans clinical isolate 311 assessed as inhibition of fungal growth by CLSI M27-A3 guidelines based method
# Cryptococcus neoformans = assay: Antifungal activity against Cryptococcus neoformans CGMCC 2.3161 assessed as inhibition of fungal growth by CLSI M27-A3 guidelines based method
Compound,MIC80 (Candida albicans [1]) [µg/mL],MIC80 (Candida tropicalis) [µg/mL],MIC80 (Candida albicans [2]) [µg/mL],MIC80 (Candida albicans [3]) [µg/mL],MIC80 (Candida parapsilosis) [µg/mL],MIC80 (Pichia kudriavzevii) [µg/mL],MIC80 (Candida albicans [4]) [µg/mL],MIC80 (Candida albicans [5]) [µg/mL],MIC80 (Aspergillus fumigatus) [µg/mL],MIC80 (Candida albicans [6]) [µg/mL],MIC80 (Candida albicans [7]) [µg/mL],MIC80 (Candida albicans [8]) [µg/mL],MIC80 (Nakaseomyces glabratus) [µg/mL],MIC80 (Candida albicans [9]) [µg/mL],MIC80 (Candida albicans [10]) [µg/mL],MIC80 (Cryptococcus neoformans) [µg/mL]
C[C@@H](N(C)Cc1ccc(C#Cc2ccc(C#N)cc2)cc1)[C@](O)(Cn1cncn1)c1ccc(F)cc1F,16,0.006,0.006,0.5,0.006,0.01,0.25,8,0.05,0.006,8,32,0.01,8,32,0.006
Cc1ccc(C#Cc2ccc(CN(C)CC(O)(Cn3cncn3)c3ccc(F)cc3F)cc2)cc1 (stereo not drawn),,0.013,0.013,,0.013,0.2,,,,0.013,,,0.4,,,0.013
Cc1cccc(C#Cc2ccc(CN(C)CC(O)(Cn3cncn3)c3ccc(F)cc3F)cc2)c1 (stereo not drawn),,0.025,0.013,,0.013,0.8,,,,0.013,,,0.4,,,0.025
CN(Cc1ccc(C#Cc2ccc([N+](=O)[O-])cc2F)cc1)CC(O)(Cn1cncn1)c1ccc(F)cc1F (stereo not drawn),,0.006,0.006,,0.006,0.05,,,,0.006,,,0.03,,,0.025
CN(Cc1ccc(C#Cc2cc(F)c(Br)cc2F)cc1)CC(O)(Cn1cncn1)c1ccc(F)cc1F (stereo not drawn),,0.006,0.006,,0.006,0.03,,,,0.006,,,0.03,,,0.025
CN(Cc1ccc(C#Cc2ccc(OC(F)(F)F)cc2)cc1)CC(O)(Cn1cncn1)c1ccc(F)cc1F (stereo not drawn),,0.013,0.013,,0.013,0.2,,,,0.025,,,0.2,,,0.05
CN(Cc1ccc(C#Cc2ccccn2)cc1)CC(O)(Cn1cncn1)c1ccc(F)cc1F (stereo not drawn),,0.013,0.25,,0.05,0.4,,,,0.013,,,1.6,,,0.2
Cc1ccccc1C#Cc1ccc(CN(C)CC(O)(Cn2cncn2)c2ccc(F)cc2F)cc1 (stereo not drawn),,0.006,0.006,,0.013,0.05,,,,0.013,,,0.1,,,0.025
CN(Cc1ccc(C#Cc2ccc(C(F)(F)F)cc2)cc1)CC(O)(Cn1cncn1)c1ccc(F)cc1F (stereo not drawn),,0.05,0.025,,0.1,0.2,,,,0.1,,,0.2,,,0.05
CN(Cc1ccc(C#Cc2ccc(F)cc2)cc1)CC(O)(Cn1cncn1)c1ccc(F)cc1F (stereo not drawn),,0.013,0.006,,0.006,0.05,,,,0.006,,,0.03,,,0.013
CN(Cc1ccc(C#Cc2ccc(Br)c(F)c2)cc1)CC(O)(Cn1cncn1)c1ccc(F)cc1F (stereo not drawn),,0.006,0.006,,0.006,0.01,,,,0.006,,,0.03,,,0.025
CN(Cc1ccc(C#Cc2ccc(C=O)cc2)cc1)CC(O)(Cn1cncn1)c1ccc(F)cc1F (stereo not drawn),,0.013,0.013,,0.013,0.05,,,,0.013,,,0.1,,,0.05
CN(Cc1ccc(C#Cc2ccccc2Br)cc1)CC(O)(Cn1cncn1)c1ccc(F)cc1F (stereo not drawn),,0.013,0.006,,0.006,0.03,,,,0.013,,,0.4,,,0.013
C[C@@H](N(C)Cc1ccc(C#Cc2ccc(C(C)(C)C)cc2)cc1)[C@](O)(Cn1cncn1)c1ccc(F)cc1F,,1.6,3.2,,1.6,3.2,,,,1.6,,,3.2,,,3.2
CN(Cc1ccc(C#Cc2ccc(OCc3ccccc3)cc2)cc1)CC(O)(Cn1cncn1)c1ccc(F)cc1F (stereo not drawn),,0.05,0.013,,0.2,0.1,,,,0.05,,,0.1,,,0.1
CN(Cc1ccc(C#Cc2ccc(-c3ccccc3)cc2)cc1)CC(O)(Cn1cncn1)c1ccc(F)cc1F (stereo not drawn),,0.05,0.013,,0.05,0.2,,,,0.05,,,0.4,,,0.05
CCc1ccc(C#Cc2ccc(CN(C)CC(O)(Cn3cncn3)c3ccc(F)cc3F)cc2)cc1 (stereo not drawn),,0.013,0.013,,0.013,0.05,,,,0.013,,,0.1,,,0.025
CN(Cc1ccc(C#Cc2ncccn2)cc1)CC(O)(Cn1cncn1)c1ccc(F)cc1F (stereo not drawn),,0.025,0.05,,0.025,1.6,,,,0.025,,,3.2,,,0.8
CN(Cc1ccc(C#Cc2ccncc2)cc1)CC(O)(Cn1cncn1)c1ccc(F)cc1F (stereo not drawn),,0.013,0.006,,0.013,0.2,,,,0.013,,,0.4,,,0.2
CN(Cc1ccc(C#Cc2ccc(Cl)c(F)c2)cc1)CC(O)(Cn1cncn1)c1ccc(F)cc1F (stereo not drawn),,0.006,0.006,,0.006,0.03,,,,0.006,,,0.01,,,0.013
CN(Cc1ccc(C#Cc2ccc(C(C)(C)C)cc2)cc1)CC(O)(Cn1cncn1)c1ccc(F)cc1F (stereo not drawn),,0.025,0.025,,0.013,0.4,,,,0.025,,,0.8,,,0.05
CN(Cc1ccc(C#Cc2ccc([N+](=O)[O-])c(F)c2)cc1)CC(O)(Cn1cncn1)c1ccc(F)cc1F (stereo not drawn),,0.006,0.006,,0.006,0.01,,,,0.006,,,0.01,,,0.025

# From ChEMBL document CHEMBL6092180 (Eur J Med Chem, 2024)
